± gives the expanded uncertainty stated by the source.
Settings: for viscosity / mass density: 101.33 kPa, Liquid; for viscosity: Falling or rolling sphere viscometry; for mass density: Vibrating tube method; for Normal melting temperature: Crystal, DTA

Row | SMILES | viscosity (293.15 K) [mPa·s] | mass density (293.15 K) [kg/m3] | viscosity (298.15 K) [mPa·s] | mass density (298.15 K) [kg/m3] | viscosity (303.15 K) [mPa·s] | mass density (303.15 K) [kg/m3] | viscosity (308.15 K) [mPa·s] | mass density (308.15 K) [kg/m3] | viscosity (313.15 K) [mPa·s] | mass density (313.15 K) [kg/m3] | viscosity (318.15 K) [mPa·s] | mass density (318.15 K) [kg/m3] | viscosity (323.15 K) [mPa·s] | mass density (323.15 K) [kg/m3] | viscosity (328.15 K) [mPa·s] | mass density (328.15 K) [kg/m3] | viscosity (333.15 K) [mPa·s] | mass density (333.15 K) [kg/m3] | Normal melting temperature [°C]
1 | OCC1CCCCC1 [cyclohexylmethanol] | 36.96 ± 0.79 | 929.96 ± 1.9 | 28.35 ± 0.61 | 926.43 ± 1.9 | 22.04 ± 0.47 | 922.87 ± 1.9 | 17.32 ± 0.37 | 919.28 ± 1.8 | 13.83 ± 0.3 | 915.66 ± 1.8 | 11.14 ± 0.24 | 912 ± 1.8 | 9.099 ± 0.2 | 908.31 ± 1.8 | 7.521 ± 0.16 | 904.57 ± 1.8 | 6.283 ± 0.14 | 900.78 ± 1.8 | –
2 | CCCCCCCCCCCC [dodecane] | 1.485 ± 0.032 | 748.82 ± 1.5 | 1.359 ± 0.029 | 745.2 ± 1.5 | 1.25 ± 0.027 | 741.57 ± 1.5 | 1.155 ± 0.025 | 737.94 ± 1.5 | 1.073 ± 0.023 | 734.3 ± 1.5 | 0.998 ± 0.022 | 730.64 ± 1.5 | 0.932 ± 0.02 | 726.98 ± 1.5 | 0.873 ± 0.019 | 723.31 ± 1.5 | 0.819 ± 0.018 | 719.64 ± 1.4 | -8.20 ± 6
3 | CCCCCCCO [heptan-1-ol] | 6.89 ± 0.15 | 822.24 ± 1.6 | 5.805 ± 0.12 | 818.74 ± 1.6 | 4.941 ± 0.11 | 815.22 ± 1.6 | 4.233 ± 0.09 | 811.68 ± 1.6 | 3.648 ± 0.077 | 808.11 ± 1.6 | 3.165 ± 0.067 | 804.52 ± 1.6 | 2.762 ± 0.059 | 800.88 ± 1.6 | 2.423 ± 0.051 | 797.2 ± 1.6 | 2.137 ± 0.045 | 793.49 ± 1.6 | -34.10 ± 6
4 | CC1CCCCC1 [methylcyclohexane] | 0.727 ± 0.016 | 769.33 ± 1.5 | 0.681 ± 0.015 | 765 ± 1.5 | 0.64 ± 0.014 | 760.67 ± 1.5 | 0.604 ± 0.013 | 756.32 ± 1.5 | 0.571 ± 0.012 | 751.95 ± 1.5 | 0.542 ± 0.012 | 747.56 ± 1.5 | 0.515 ± 0.011 | 743.15 ± 1.5 | 0.491 ± 0.011 | 738.73 ± 1.5 | 0.469 ± 0.01 | 734.28 ± 1.5 | -125.30 ± 6
